# Results as given in ChEMBL document CHEMBL1127565, “Identification of two hydrophobic patches in the active-site cavity of human carbonic anhydrase II by solution-phase and solid-state studies and their use in the development of tight-binding inhibitors” (J Med Chem, 1994).
# Target: Carbonic anhydrase 2 (Homo sapiens, UniProt P00918)
# Description: Dissociation constant against human Carbonic anhydrase II (HCA II)
row,SMILES,Kd [nM]
1,NS(=O)(=O)c1ccc(C(=O)NCc2ccccn2)cc1,4.3
2,NS(=O)(=O)c1ccc(C(=O)NC(=O)c2ccco2)cc1,5.6
3,NS(=O)(=O)c1ccc(C(=O)N[C@@H](Cc2ccccc2)C(=O)NCC(=O)NCC(=O)OCc2ccccc2)cc1,5.3
4,NS(=O)(=O)c1ccc(C(=O)NCc2ccncc2)cc1,1.4
5,NS(=O)(=O)c1ccc(C(=O)N[C@H](C(=O)NCC(=O)NCC(=O)OCc2ccccc2)c2ccccc2)cc1,0.9
6,NS(=O)(=O)c1ccc(C(=O)NCC(F)(F)C(F)(F)C(F)(F)C(F)(F)C(F)(F)C(F)(F)C(F)(F)F)cc1,0.3
7,CCCCc1ccc(COC(=O)CNC(=O)CNC(=O)CNC(=O)c2ccc(S(N)(=O)=O)cc2)cc1,53
8,NS(=O)(=O)c1ccc(C(=O)NCC(=O)NCC(=O)NCC(=O)OCc2ccccc2)cc1,75
9,NS(=O)(=O)c1ccc(C(=O)NCC(=O)NCC(=O)NCC(=O)NCC(=O)OCc2ccccc2)cc1,210
10,NS(=O)(=O)c1ccc(C(=O)NCSc2ccccc2)cc1,1.7
11,NS(=O)(=O)c1ccc(C(=O)N[C@@H](Cc2ccccc2)C(=O)NCC(=O)NCC(=O)O)cc1,21
12,CN(C)c1ccc(CNC(=O)c2ccc(S(N)(=O)=O)cc2)cc1,1.4
13,NS(=O)(=O)c1ccc(C(=O)NCC(=O)NCC(=O)OCc2ccccc2)cc1,71
14,Cc1ccccc1CNC(=O)c1ccc(S(N)(=O)=O)cc1,2.2
15,NS(=O)(=O)c1ccc(C(=O)NCc2ccc([N+](=O)[O-])cc2)cc1,2
16,NS(=O)(=O)c1ccc(C(=O)NCC23CC4CC(CC(C4)C2)C3)cc1,2.1
17,NC(=O)c1ccc(S(N)(=O)=O)cc1,120
18,NS(=O)(=O)c1ccc(C(=O)NCc2cccnc2)cc1,4
19,NS(=O)(=O)c1ccc(C(=O)NCc2ccc(F)c(F)c2F)cc1,2.3
20,NS(=O)(=O)c1ccc(C(=O)NCc2cccc3ccccc23)cc1,0.6
21,NS(=O)(=O)c1ccc(C(=O)NCC2CCCCC2)cc1,1.1
22,CCCCCCCCNC(=O)c1ccc(S(N)(=O)=O)cc1,2.5
23,CNC(=O)c1ccc(S(N)(=O)=O)cc1,150
24,NS(=O)(=O)c1ccc(C(=O)N[C@H](Cc2ccccc2)C(=O)NCC(=O)NCC(=O)OCc2ccccc2)cc1,36
